Earlier results in US9943503B1, “Pharmaceutical composition for treating bacterial and viral infections” (priority 2017, dated 2018).

System: common cold
Details: adults; review of evidence

SMILES | prevention of the common cold, evidence
C=CCS[S+]([O-])CC=C (centres unmarked) [Allicin] | highly effective
O=C1O[C@H]([C@@H](O)CO)C(O)=C1O [vitamin C, ascorbic acid] | demonstrated benefit
